Here are results for one compound from patent US5721223A, “Imidazo[1,2-a] Pyridinyldiacid compounds for cognitive enhancement and for treatment of cognitive disorders and neurotoxic injury” (priority 1995, dated 1998).

Where a name gives a salt, the structure may show the parent alone.

The Ki is a measure of affinity in units of concentration, obtained from inhibition or displacement. A low value points to higher affinity.

The assay concerns the target T1, glycine receptor site (Rattus norvegicus, UniProt P35439).
T1 construct: Synaptic plasma membranes (SPM) were prepared from rat forebrain; from tissue; host or cells: rat forebrain synaptic plasma membranes
In words: Glycine binding assay ([3H]GLY). The conditions noted are these: [3H]glycine 10 nM, rat forebrain SPM. Here is the method: Synaptic plasma membranes (SPM) were prepared from rat forebrain and stored as previously described [J. B. Monahan and J. Michel, J. Neurochem, 48, 1699-1708 (1987)]. Frozen membranes were thawed and diluted 1:20 with 0.04% Triton X-100 in 50 mM tris/acetate (pH 7.4). Following incubation at 37° C. for 30 min., the SPM were collected by centrifugation at 95,000×g for 15 min. The pellet was resuspended in 50 mM tris/acetate (pH 7.4, Triton-free) and hand-homogenized five times. The membranes were again centrifuged as above. The pellet was washed two additional times with 50 mM tris/acetate (without homogenization) and centrifuged. The final pellet was resuspended with homogenization in 50 mM tris/acetate. In the general receptor binding assay procedure, 10 nM [3H]glycine was added to the appropriate concentration of the test compounds and the assay initiated by the addition of 0.2-0.4 mg of ice cold SPM. […] Beckman MP scintillation cocktail (5 mL) containing 7 mL/liter acetic acid was then added and the samples counted on a Beckman LS 5800 liquid scintillation counter with automatic corrections for quenching and counting efficiency. […] The binding of [3H]glycine to the SPM was analyzed using Scatchard and Hill transformations and the Ki for other compounds was determined using logit-log analysis. […]

In the case of `O=C(O)Cc1c(C(=O)O)nc2ccccn12` [Example 3, hydrochloride], the Ki is 51 µM.
